Test results taken from US9090600B2, “Fungicidal 4-substituted-3-{phenyl[(heterocyclylmethoxy)imino]methyl}-1,2,4-oxadizol-5(4H)-one derivatives” (BAYER INTELLECTUAL PROPERTY GMBH, priority 2011, dated 2015).
Marks after values point to notes of the source that are not given here.

Tests used:
[1] = pH 2.7
Phytophthora infestans = assay type: in vivo; settings: tomato plants, spray, 500 ppm, grading 5 days after contamination

| Structure (SMILES) | LogP [1] | Eff. % (Phytophthora infestans) |
| --- | --- | --- |
| CC(Oc1ccccc1Cl)C(=O)Nc1nc(CO/N=C(/c2ccccc2)c2noc(=O)n2C)cs1 (racemic) [Example 366] | 4.07 [a] | 94% |
| CC(C)CC(C)OC(=O)Nc1cccc(CO/N=C(/c2ccc(F)cc2)c2noc(=O)n2C)n1 (racemic) [Example 383] | 4.77 [a] | 70% |
| CCC(C(=O)Nc1cccc(CO/N=C(/c2ccccc2)c2noc(=O)n2C)n1)c1ccccc1 (racemic) [Example 386] | 4.23 [a] | 80% |
| CC(OCC1CC1)C(=O)Nc1cccc(CO/N=C(/c2ccccc2)c2noc(=O)n2C)n1 (racemic) [Example 390] | 3.78 [a] | 100% |
| Cn1c(/C(=N\OCc2csc(NC(=O)c3ccccc3F)n2)c2ccccc2)noc1=O [Example 27] | 3.44 [a] | 100% |
| Cn1c(/C(=N\OCc2cccc(NC(=O)Cc3ccccc3Cl)n2)c2ccccc2)noc1=O [Example 29] | 3.76 [a] | 100% |
| CCCCCCCC(=O)Nc1cccc(CO/N=C(/c2ccccc2)c2noc(=O)n2C)n1 [Example 32] | 4.71 [a] | 100% |
| CCCOC(=O)Nc1cccc(CO/N=C(/c2ccccc2)c2noc(=O)n2C)n1 [Example 33] | 3.62 [a] | 100% |
| CC(C)CCOC(=O)Nc1nc(CO/N=C(/c2ccccc2)c2noc(=O)n2C)cs1 [Example 47] | 4.06 [a] | 100% |
| CCOCCC(=O)Nc1cccc(CO/N=C(/c2ccccc2)c2noc(=O)n2C)n1 [Example 48] | 2.96 [a] | 98% |
| CC(=O)Nc1cccc(CO/N=C(/c2ccccc2)c2noc(=O)n2C)n1 [Example 52] | 2.44 [a] | 100% |
| Cn1c(/C(=N\OCc2csc(NC(=O)COc3ccc(Br)cc3)n2)c2ccccc2)noc1=O [Example 55] | 3.94 [a] | 100% |
| CCC(C)CCOC(=O)Nc1cccc(CO/N=C(/c2ccccc2)c2noc(=O)n2C)n1 (stereo not shown) [Example 56] | 4.78 [a] | 100% |
| CCn1c(/C(=N\OCc2cccc(NC(=O)OC3CCCCC3)n2)c2ccccc2)noc1=O [Example 61] | 4.77 [a] | 100% |
| Cn1c(/C(=N\OCc2csc(NC(=O)OCC(C)(C)C)n2)c2ccccc2)noc1=O [Example 72] | 4.01 [a] | 97% |
| Cn1c(/C(=N\OCc2csc(NC(=O)Oc3ccccc3)n2)c2ccccc2)noc1=O [Example 75] | 3.48 [a] | 90% |
| Cn1c(/C(=N\OCc2cccc(NC(=O)CC3CC4CCC3C4)n2)c2ccccc2)noc1=O (stereo not shown) [Example 78] | 4.39 [a] | 100% |
| Cn1c(/C(=N\OCc2cccc(NC(=O)OCC(C)(C)c3ccccc3)n2)c2ccccc2)noc1=O [Example 79] | 4.71 [a] | 88% |
| Cn1c(/C(=N\OCc2csc(NC(=O)c3ccccc3Br)n2)c2ccccc2)noc1=O [Example 81] | 3.51 [a] | 78% |
| Cc1ccccc1OC(C)C(=O)Nc1nc(CO/N=C(/c2ccccc2)c2noc(=O)n2C)cs1 (stereo not shown) [Example 82] | 4.12 [a] | 99% |
| Cc1cccc(/C(=N/OCc2cccc(N(C(=O)OC(C)(C)C)C(=O)OC(C)(C)C)n2)c2noc(=O)n2C)c1 [Example 87] | 4.77 [a] | 95% |

| Structure (SMILES) | LogP [1] | Eff. % (Phytophthora infestans) |
| --- | --- | --- |
| Cn1c(/C(=N\OCc2cccc(NC(=O)OCCc3ccc(F)cc3)n2)c2ccccc2)noc1=O [Example 89] | 4.19 [a] | 99% |
| COc1ccccc1C(=O)Nc1nc(CO/N=C(/c2ccccc2)c2noc(=O)n2C)cs1 [Example 91] | 3.71 [a] | 85% |
| CCCCOC(C)C(=O)Nc1cccc(CO/N=C(/c2ccccc2)c2noc(=O)n2C)n1 (stereo not shown) [Example 93] | 4.3 [a] | 99% |
| CCCCCCCCC(=O)Nc1cccc(CO/N=C(/c2ccccc2)c2noc(=O)n2C)n1 [Example 98] | 5.11 [a] | 99% |
| COc1ccc(CC(=O)Nc2cccc(CO/N=C(/c3cccc(OC)c3)c3noc(=O)n3C)n2)cc1 [Example 101] | 3.51 [a] | 97% |
| Cn1c(/C(=N\OCc2csc(NC(=O)OC3CCCC3)n2)c2ccccc2)noc1=O [Example 103] | 3.76 [a] | 80% |
| Cn1c(/C(=N\OCc2cccc(NC(=O)OCCc3ccccc3Cl)n2)c2ccccc2)noc1=O [Example 106] | 4.56 [a] | 75% |
| CCCCCCOC(=O)Nc1cccc(CO/N=C(/c2ccccc2)c2noc(=O)n2C)n1 [Example 107] | 4.85 [a] | 100% |
| Cn1c(/C(=N\OCc2cccc(NC(=O)OC3CCCC3)n2)c2ccccc2)noc1=O [Example 110] | 4.09 [a] | 98% |
| COc1cccc(/C(=N/OCc2cccc(NC(=O)OC3CCCCC3)n2)c2noc(=O)n2C)c1 [Example 112] | 4.49 [a] | 73% |
| Cn1c(/C(=N\OCc2cccc(NC(=O)c3ccccc3F)n2)c2ccccc2)noc1=O [Example 114] | 3.73 [a] | 100% |
| Cn1c(/C(=N\OCc2cccc(NC(=O)C3CCC3)n2)c2ccccc2)noc1=O [Example 118] | 3.27 [a] | 100% |
| COC(=O)C(C)OC(=O)Nc1cccc(CO/N=C(/c2ccccc2)c2noc(=O)n2C)n1 (stereo not shown) [Example 119] | 3.17 [a] | 97% |
| Cn1c(/C(=N\OCc2csc(NC(=O)COc3ccc(Cl)cc3Cl)n2)c2ccccc2)noc1=O [Example 123] | 4.23 [a] | 98% |
| C#CCC(C)OC(=O)Nc1cccc(CO/N=C(/c2ccccc2)c2noc(=O)n2CC)n1 (stereo not shown) [Example 127] | 3.81 [a] | 100% |
| CCC(C)C(=O)Nc1cccc(CO/N=C(/c2ccccc2)c2noc(=O)n2C)n1 (stereo not shown) [Example 132] | 3.41 [a] | 97% |
| Cc1ccccc1CCOC(=O)Nc1cccc(CO/N=C(/c2ccccc2)c2noc(=O)n2C)n1 [Example 133] | 4.51 [a] | 88% |
| Cn1c(/C(=N\OCc2cccc(NC(=O)c3ccco3)n2)c2ccccc2)noc1=O [Example 134] | 3.13 [a] | 99% |
| Cn1c(/C(=N\OCc2cccc(NC(=O)C3(C)CC3)n2)c2ccccc2)noc1=O [Example 137] | 3.31 [a] | 98% |
| Cn1c(/C(=N\OCc2cccc(NC(=O)Oc3ccccc3)n2)c2ccccc2)noc1=O [Example 138] | 3.73 [a] | 97% |
| Cn1c(/C(=N\OCc2cccc(NC(=O)C(C)(C)C)n2)c2cccc(F)c2)noc1=O [Example 139] | 3.61 [a] | 100% |

| Structure (SMILES) | LogP [1] | Eff. % (Phytophthora infestans) |
| --- | --- | --- |
| Cc1cccc(/C(=N/OCc2cccc(NC(=O)OC(C)(C)C)n2)c2noc(=O)n2C)c1 [Example 142] | 4.34 [a] | 100% |
| Cn1c(/C(=N\OCc2csc(NC(=O)c3cccc(I)c3)n2)c2ccccc2)noc1=O [Example 143] | 4.19 [a] | 75% |
| Cc1ccc(C(=O)Nc2cccc(CO/N=C(/c3ccccc3)c3noc(=O)n3C)n2)cc1 [Example 144] | 3.85 [a] | 95% |
| CC(COC(=O)Nc1cccc(CO/N=C(/c2ccccc2)c2noc(=O)n2C)n1)c1ccccc1 (stereo not shown) [Example 145] | 4.46 [a] | 83% |
| Cn1c(/C(=N\OCc2cccc(NC(=O)CC34CC5CC(CC(C5)C3)C4)n2)c2ccccc2)noc1=O [Example 146] | 5.08 [a] | 93% |
| Cn1c(/C(=N\OCc2cccc(NC(=O)C3CCCCC3)n2)c2ccccc2)noc1=O [Example 147] | 3.92 [a] | 100% |
| CC(C)=CCC(=O)Nc1cccc(CO/N=C(/c2ccccc2)c2noc(=O)n2C)n1 [Example 153] | 3.59 [a] | 100% |
| CC(Oc1cccc(Br)c1)C(=O)Nc1nc(CO/N=C(/c2ccccc2)c2noc(=O)n2C)cs1 (stereo not shown) [Example 155] | 4.17 [a] | 92% |
| CCCCCOC(=O)Nc1cccc(CO/N=C(/c2ccc(F)cc2)c2noc(=O)n2C)n1 [Example 161] | 4.51 [a] | 92% |
| Cn1c(/C(=N\OCc2cccc(NC(=O)C3(c4ccccc4)CC3)n2)c2ccccc2)noc1=O [Example 165] | 4.43 [a] | 70% |
| Cc1ccoc1C(=O)Nc1cccc(CO/N=C(/c2ccccc2)c2noc(=O)n2C)n1 [Example 170] | 3.71 [a] | 100% |
| COc1ccccc1CCOC(=O)Nc1cccc(CO/N=C(/c2ccccc2)c2noc(=O)n2C)n1 [Example 175] | 4.31 [a] | 93% |
| CCCCC(=O)Nc1cccc(CO/N=C(/c2ccccc2)c2noc(=O)n2CC)n1 [Example 176] | 3.76 [a] | 100% |
| CC(C)C(=O)Nc1cccc(CO/N=C(/c2ccccc2)c2noc(=O)n2C)n1 [Example 177] | 3.11 [a] | 100% |
| Cn1c(/C(=N\OCc2cccc(NC(=O)c3ccccc3Cl)n2)c2ccccc2)noc1=O [Example 178] | 3.64 [a] | 99% |
| CC(C)CCOC(=O)Nc1cccc(CO/N=C(/c2ccccc2)c2noc(=O)n2C)n1 [Example 182] | 4.39 [a] | 100% |
| COc1ccccc1CCC(=O)Nc1cccc(CO/N=C(/c2ccccc2)c2noc(=O)n2C)n1 [Example 184] | 3.87 [a] | 99% |
| Cn1c(/C(=N\OCc2cccc(NC(=O)OCCc3ccccc3F)n2)c2ccccc2)noc1=O [Example 186] | 4.21 [a] | 83% |
| Cn1c(/C(=N\OCc2cccc(NC(=O)c3ccc(Br)cc3)n2)c2ccccc2)noc1=O [Example 187] | 4.14 [a] | 80% |
| CSCCC(=O)Nc1cccc(CO/N=C(/c2ccccc2)c2noc(=O)n2C)n1 [Example 188] | 3.09 [a] | 99% |
